Data from patent US7879887B2, “α-amino acid derivatives and medicaments containing the same as an active ingredient” (Nissan Chemical Industries, Ltd., priority 2006, dated 2011).

How the values were obtained:
[1] = system: colon carcinoma cell line SW620; assay: Cell proliferation inhibitory activity, SW620; assay type: cell-based, human; settings: cells counted 4 days later with Cell Counting Kit-8
Protocol: (§1) Evaluations were carried out using colon carcinoma cell line SW620 (Cat. No. CCL-227), lung carcinoma cell line NCI-H460 (Cat. No. HTB-177), prostate cancer cell line DU 145 (Cat. No. HTB-81), breast cancer cell line MDA-MB-231 (Cat. No. HTB26) and leukemia cell line KG-1a (Cat. No. CCL-246.1) purchased from ATCC, pancreatic cancer cell line MIAPaCa-2 (Cat. No. CRL-1420) purchased from Dainippon Pharmaceutical, and ovarian cancer cell line IGROV1 received from the Netherland Cancer Institute. The cells were cultured under the conditions recommended by the supplier for each cell line, or with respect to IGROV1, according to the method described in Cancer Res. 59: 4559-4563, 1999. Cells suspended in media were added to solutions containing the test substances at various concentrations followed by culturing in a 5% CO2 incubator at 37° C. The numbers of cells were counted 4 days later with the Cell Counting Kit-8. IC50 values were calculated by assigning measured values in the case of not containing a test substance to an inhibition of 0%, and assigning measured values in the case of not containing a test substance or cells to an inhibition of 100%.

[2] = system: ovarian cancer cell line IGROV1; assay: Cell proliferation inhibitory activity, IGROV1; assay type: cell-based; settings: cells counted 4 days later with Cell Counting Kit-8
Protocol: as §1

leukemia cell line KG-1a = assay: Cell proliferation inhibitory activity, KG-1a; assay type: cell-based; settings: cells counted 4 days later with Cell Counting Kit-8
Protocol: as §1

CDK2/Cyclin E complex = CDK2/Cyclin E complex (Homo sapiens, UniProt P24941); assay: In vitro kinase assay, CDK2/Cyclin E complex; assay type: biochemical; settings: recombinant protein (Upstate); read-out: CDK2/cyclinE IC50
Protocol: (§2) Inhibitory activity against Aurora A, CDK1/Cyclin B complex, CDK2/Cyclin E complex and CDK3/Cyclin E complex were measured by in vitro kinase assay using recombinant proteins.

CDK3/Cyclin E complex = target: T1, CDK3/Cyclin E complex (Homo sapiens, UniProt Q00526); assay: In vitro kinase assay, CDK3/Cyclin E complex; assay type: biochemical; settings: recombinant protein (Upstate); read-out: CDK3/cyclinE IC50
T1 construct: purchased Upstate Inc. 14-487
T1 sequence (Q00526 whole entry): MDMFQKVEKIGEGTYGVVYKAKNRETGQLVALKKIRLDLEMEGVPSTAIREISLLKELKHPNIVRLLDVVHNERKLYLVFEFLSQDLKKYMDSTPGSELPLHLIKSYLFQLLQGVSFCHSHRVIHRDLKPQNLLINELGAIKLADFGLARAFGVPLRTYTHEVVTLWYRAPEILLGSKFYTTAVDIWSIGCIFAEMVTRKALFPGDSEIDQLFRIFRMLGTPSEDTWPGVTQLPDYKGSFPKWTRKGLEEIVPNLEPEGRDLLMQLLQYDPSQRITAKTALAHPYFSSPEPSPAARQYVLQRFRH
T1 sequence (P24864 whole entry partner): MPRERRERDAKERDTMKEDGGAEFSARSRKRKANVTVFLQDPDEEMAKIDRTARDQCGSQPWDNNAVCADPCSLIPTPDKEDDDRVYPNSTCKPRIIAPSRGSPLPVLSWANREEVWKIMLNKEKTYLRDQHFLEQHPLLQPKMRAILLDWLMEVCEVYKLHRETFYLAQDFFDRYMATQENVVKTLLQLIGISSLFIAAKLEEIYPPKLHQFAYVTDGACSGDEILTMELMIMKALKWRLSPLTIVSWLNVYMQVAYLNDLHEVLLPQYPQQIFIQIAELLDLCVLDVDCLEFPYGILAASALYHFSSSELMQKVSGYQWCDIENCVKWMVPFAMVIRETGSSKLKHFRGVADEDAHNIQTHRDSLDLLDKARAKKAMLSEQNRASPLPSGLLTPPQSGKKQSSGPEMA
Protocol: as §2

[3] = system: breast cancer cell line MDA-MB-231; assay: Cell proliferation inhibitory activity, MDA-MB-231; assay type: cell-based; settings: cells counted 4 days later with Cell Counting Kit-8
Protocol: as §1

Aurora A = target: T2, Aurora A (Homo sapiens, UniProt O14965); assay: In vitro kinase assay, Aurora A; assay type: biochemical; settings: recombinant protein (Upstate)
T2 construct: purchased Upstate Inc. 14-511
T2 sequence (O14965 1-403): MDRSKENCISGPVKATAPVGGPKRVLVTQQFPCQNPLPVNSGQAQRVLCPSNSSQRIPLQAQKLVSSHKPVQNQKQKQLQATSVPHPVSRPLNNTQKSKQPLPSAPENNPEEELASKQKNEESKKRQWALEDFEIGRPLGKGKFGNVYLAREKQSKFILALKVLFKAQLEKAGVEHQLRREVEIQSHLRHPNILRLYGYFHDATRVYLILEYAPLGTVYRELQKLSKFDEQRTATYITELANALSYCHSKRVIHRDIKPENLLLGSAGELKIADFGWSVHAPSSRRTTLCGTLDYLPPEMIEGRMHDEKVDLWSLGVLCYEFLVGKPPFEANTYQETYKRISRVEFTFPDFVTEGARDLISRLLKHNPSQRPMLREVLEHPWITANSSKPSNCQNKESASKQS
Protocol: (§3) Inhibitory activity against Aurora A, CDK1/Cyclin B complex, CDK2/Cyclin E complex and CDK3/Cyclin E complex were measured by in vitro kinase assay using recombinant proteins. The assays were carried out by using recombinant proteins (Upstate Inc.) for Aurora A, CDK1/Cyclin B complex, CDK2/Cyclin E complex and CDK3/Cyclin E complex (respective cat. nos. 14-511, 14-450, 14-448 and 14-487), in accordance with the procedure described in the product instructions thereof. The 50% inhibitory concentrations (IC50 values) were calculated by assigning measured values in the case of not containing a test compound to an inhibition of 0%, and assigning measured values in the case of not containing a test compound and enzyme to an inhibition of 100%.

CDK1/Cyclin B complex = target: T3, CDK1/Cyclin B complex (Homo sapiens, UniProt P06493); assay: In vitro kinase assay, CDK1/Cyclin B complex; assay type: biochemical; settings: recombinant protein (Upstate)
T3 construct: purchased Upstate Inc. 14-450
T3 sequence (P06493 whole entry): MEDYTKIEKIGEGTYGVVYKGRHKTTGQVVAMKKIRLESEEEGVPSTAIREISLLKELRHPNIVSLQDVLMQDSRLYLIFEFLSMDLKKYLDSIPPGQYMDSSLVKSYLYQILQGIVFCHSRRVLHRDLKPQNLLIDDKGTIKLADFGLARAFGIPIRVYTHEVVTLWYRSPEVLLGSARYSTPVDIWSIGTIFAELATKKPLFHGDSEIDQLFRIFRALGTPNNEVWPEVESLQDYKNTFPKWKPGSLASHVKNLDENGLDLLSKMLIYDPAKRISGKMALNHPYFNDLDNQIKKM
T3 sequence (P14635 whole entry partner): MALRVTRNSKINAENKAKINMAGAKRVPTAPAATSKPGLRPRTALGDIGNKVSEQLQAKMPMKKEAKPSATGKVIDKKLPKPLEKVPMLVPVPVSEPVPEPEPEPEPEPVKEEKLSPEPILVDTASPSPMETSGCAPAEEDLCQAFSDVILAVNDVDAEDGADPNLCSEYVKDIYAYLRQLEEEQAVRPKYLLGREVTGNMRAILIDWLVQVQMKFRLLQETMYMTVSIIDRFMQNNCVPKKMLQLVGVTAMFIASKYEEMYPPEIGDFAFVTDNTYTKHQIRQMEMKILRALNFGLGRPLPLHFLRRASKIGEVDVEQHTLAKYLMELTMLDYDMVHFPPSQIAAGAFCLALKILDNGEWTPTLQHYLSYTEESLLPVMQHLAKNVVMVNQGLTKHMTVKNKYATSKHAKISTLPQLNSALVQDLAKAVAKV
Protocol: as §3

[4] = system: prostate cancer cell line DU 145; assay: Cell proliferation inhibitory activity, DU 145; assay type: cell-based, human; settings: cells counted 4 days later with Cell Counting Kit-8
Protocol: as §1

[5] = system: lung carcinoma cell line NCI-H460; assay: Cell proliferation inhibitory activity, NCI-H460; assay type: cell-based; settings: cells counted 4 days later with Cell Counting Kit-8
Protocol: as §1

Structure (SMILES) | IC50 [1] [nM] | IC50 [2] [µM] | IC50 (leukemia cell line KG-1a) [nM] | IC50 (CDK2/Cyclin E complex) [nM] | IC50 (CDK3/Cyclin E complex) [nM] | IC50 ([1]; Homo sapiens, SW-620, 96 h) [nM] | IC50 ([3]; Homo sapiens, 96 h) [µM] | IC50 ([2]; Homo sapiens, IGROV-1, 96 h) [µM] | IC50 (leukemia cell line KG-1a; Homo sapiens, 96 h) [nM] | IC50 (Aurora A) [nM] | IC50 (CDK1/Cyclin B complex) [nM] | IC50 ([4]; Homo sapiens, 96 h) [µM] | IC50 ([5]; Homo sapiens, 96 h) [nM] | IC50 [4] [µM] | IC50 [5] [nM] | IC50 [3] [µM]
COc1cccc(NCC(=O)Nc2nc3ccc4[nH]ncc4c3s2)c1 [compound 1] | 1600 | 4.6 | < 100 |  |  |  |  |  |  |  |  |  |  |  |  | 
O=C(CNc1cccc(F)c1)Nc1nc2ccc3[nH]ncc3c2s1 [compound 3] |  |  |  | 199 | 391 | 1700 | 4.7 | 4.9 | 100 |  |  |  |  |  |  | 
Nc1cccc(NCC(=O)Nc2nc3ccc4[nH]ncc4c3s2)c1 [compound 11] |  |  |  | 192 | 355 | 1600 |  | 4.8 | < 100 |  |  |  |  |  |  | 
COC(=O)Nc1cc(NC(C)(C)C(=O)Nc2nc3ccc4[nH]ncc4c3s2)ccc1Cl [compound 50] |  |  |  | 435 |  | 2500 |  | 4.8 | < 100 | 426 |  |  |  |  |  | 
CC(C)(Nc1ccc(Cl)c(NS(C)(=O)=O)c1)C(=O)Nc1nc2c(C(F)(F)F)cc3[nH]ncc3c2s1 [compound 84] |  |  |  | 44 | 44 | 1600 | 4.8 |  | 200 | 247 | 205 | 3.4 | 3200 |  |  | 
CNC(=O)Nc1cc(NC(C)(C)C(=O)Nc2nc3c(C(F)(F)F)cc4[nH]ncc4c3s2)ccc1Cl [compound 90] |  |  |  | 160 | 70 | 1300 | 4.4 |  |  |  | 365 | 1.9 | 2500 |  |  | 
CC(C)(Nc1ccc(Cl)c(OCCCS(N)(=O)=O)c1)C(=O)Nc1nc2c(C(F)(F)F)cc3[nH]ncc3c2s1 [compound 94] | 1800 | 4.5 |  |  |  |  |  |  |  |  |  |  |  | 4.2 | 2000 | 2.8
O=C(CNc1ccccc1)Nc1nc2ccc3[nH]ncc3c2s1 [compound 104] |  |  |  | 412 | 395 | 1000 | 4.9 | 4.7 | < 100 |  |  |  |  |  |  | 
O=C(Nc1nc2ccc3[nH]ncc3c2s1)C1(Nc2ccc(Cl)cc2)CCC1 [compound 114] |  |  |  | 83 | 174 | 700 | 4.7 |  | < 100 |  |  |  |  |  |  | 
O=C(Nc1nc2ccc3[nH]ncc3c2s1)C1(Nc2ccc(Cl)cc2)CCCC1 [compound 115] |  |  |  | 154 | 217 | 700 | 3.9 | 4.8 | < 100 |  |  | 3.2 |  |  |  | 
O=C(Nc1nc2ccc3[nH]ncc3c2s1)C1(Nc2ccc(Cl)cc2)CCCCC1 [compound 116] |  |  |  | 245 | 412 | 1000 |  | 4.9 | 200 |  | 486 | 3.4 |  |  |  | 
O=C(Nc1nc2ccc3[nH]ncc3c2s1)C1(Nc2cccc(O)c2)CC1 [compound 122] |  |  |  | 56 | 63 | 1100 | 3.1 | 4.9 | < 100 | 168 | 197 | 4.5 | 4000 |  |  | 
